Results from ChEMBL document CHEMBL5126608, “Development, Optimization, and In Vivo Validation of New Imidazopyridine Chemotypes as Dual TLR7/TLR9 Antagonists through Activity-Directed Sequential Incorporation of Relevant Structural Subunits” (J Med Chem, 2022).
Converted amounts (≈) assume the structure as drawn.

Legend:
[1] = Stability in human plasma assessed as parent compound remaining at 1 uM measured after 2 hrs by LC-MS/MS analysis
[2] = Stability in mouse plasma assessed as parent compound remaining at 1 uM measured after 2 hrs by LC-MS/MS analysis
[3] = target: T1, Toll-like receptor 9 (Homo sapiens, UniProt Q9NR96); test: Antagonist activity at human TLR9 expressed in HEK-blue hTLR9 cells assessed as inhibition of CpGB-induced NFkappaB activation preincubated with compound for 1 hrs followed by CpGB addition and measured next day by SEAP-based spectrophotometry assay; type: cell-based
T1 sequence (Q9NR96 whole entry): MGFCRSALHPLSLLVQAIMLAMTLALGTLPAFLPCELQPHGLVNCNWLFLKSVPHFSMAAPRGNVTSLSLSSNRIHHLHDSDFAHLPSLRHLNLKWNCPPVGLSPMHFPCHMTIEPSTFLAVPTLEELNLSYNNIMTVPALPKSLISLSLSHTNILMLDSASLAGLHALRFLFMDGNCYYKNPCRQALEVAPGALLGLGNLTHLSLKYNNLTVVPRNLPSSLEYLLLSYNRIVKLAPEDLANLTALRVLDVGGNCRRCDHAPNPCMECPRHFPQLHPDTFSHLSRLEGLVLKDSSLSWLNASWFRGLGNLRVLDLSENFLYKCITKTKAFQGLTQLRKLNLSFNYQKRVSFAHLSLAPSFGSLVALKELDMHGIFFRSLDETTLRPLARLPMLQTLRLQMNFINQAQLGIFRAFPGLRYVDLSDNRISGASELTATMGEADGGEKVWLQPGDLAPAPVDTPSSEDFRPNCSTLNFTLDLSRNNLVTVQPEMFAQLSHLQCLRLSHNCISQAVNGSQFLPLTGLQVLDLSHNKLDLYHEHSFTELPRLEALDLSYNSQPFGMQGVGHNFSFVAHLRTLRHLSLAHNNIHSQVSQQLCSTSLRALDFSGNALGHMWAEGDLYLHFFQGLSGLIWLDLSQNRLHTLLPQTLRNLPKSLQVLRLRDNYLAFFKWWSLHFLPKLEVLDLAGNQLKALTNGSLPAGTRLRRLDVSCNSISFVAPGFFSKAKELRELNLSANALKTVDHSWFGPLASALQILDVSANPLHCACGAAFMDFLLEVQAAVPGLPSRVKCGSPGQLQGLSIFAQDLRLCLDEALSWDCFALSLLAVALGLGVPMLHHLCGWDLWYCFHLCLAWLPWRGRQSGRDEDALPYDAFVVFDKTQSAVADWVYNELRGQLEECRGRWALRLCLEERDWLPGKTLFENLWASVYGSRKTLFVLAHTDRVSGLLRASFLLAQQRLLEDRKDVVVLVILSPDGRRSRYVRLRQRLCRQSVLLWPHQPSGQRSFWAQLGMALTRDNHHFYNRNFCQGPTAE

[4] = target: T2, Toll-like receptor 7 (Homo sapiens, UniProt Q9NYK1)
T2 sequence (Q9NYK1 whole entry): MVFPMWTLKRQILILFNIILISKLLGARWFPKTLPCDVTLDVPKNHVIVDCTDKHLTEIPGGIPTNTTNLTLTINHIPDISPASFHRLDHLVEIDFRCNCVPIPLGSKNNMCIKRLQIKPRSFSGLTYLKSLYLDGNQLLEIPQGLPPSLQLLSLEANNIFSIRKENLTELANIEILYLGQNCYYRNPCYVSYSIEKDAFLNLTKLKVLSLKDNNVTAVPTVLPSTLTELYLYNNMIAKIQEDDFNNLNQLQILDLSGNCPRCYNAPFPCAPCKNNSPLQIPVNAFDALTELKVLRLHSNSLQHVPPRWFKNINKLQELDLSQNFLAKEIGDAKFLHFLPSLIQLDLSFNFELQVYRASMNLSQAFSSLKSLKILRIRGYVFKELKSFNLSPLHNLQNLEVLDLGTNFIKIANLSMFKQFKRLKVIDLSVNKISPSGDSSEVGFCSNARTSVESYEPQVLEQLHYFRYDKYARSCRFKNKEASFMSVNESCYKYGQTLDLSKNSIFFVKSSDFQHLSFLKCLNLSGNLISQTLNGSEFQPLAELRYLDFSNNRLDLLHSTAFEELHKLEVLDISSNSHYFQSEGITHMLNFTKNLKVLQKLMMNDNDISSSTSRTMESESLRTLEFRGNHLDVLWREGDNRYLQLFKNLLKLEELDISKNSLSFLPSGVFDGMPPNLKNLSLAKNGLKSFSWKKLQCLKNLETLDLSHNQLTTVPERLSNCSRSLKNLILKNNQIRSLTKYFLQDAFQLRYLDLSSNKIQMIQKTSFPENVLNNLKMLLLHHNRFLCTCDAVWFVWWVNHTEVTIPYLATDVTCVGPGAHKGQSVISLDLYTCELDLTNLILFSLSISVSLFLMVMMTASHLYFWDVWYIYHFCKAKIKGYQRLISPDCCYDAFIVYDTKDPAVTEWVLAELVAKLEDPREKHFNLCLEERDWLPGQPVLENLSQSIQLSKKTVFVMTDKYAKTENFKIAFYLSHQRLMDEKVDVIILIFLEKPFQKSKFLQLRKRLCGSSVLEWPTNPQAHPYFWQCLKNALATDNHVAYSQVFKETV

[5] = physchem; settings: octanol/water
Description: 1-Octanol/phosphate buffer partition coefficient, logD of the compound measured after 4.5 hrs by HPLC-UV analysis

[6] = physchem; settings: buffer, pH 7.4
[7] = in vitro; settings: human, microsomes
Description: Metabolic stability in human liver microsomes assessed as half life at 5 uM measured for 60 mins by LC-MS/MS analysis

[8] = in vitro; settings: mouse, microsomes
Description: Metabolic stability in mouse liver microsomes assessed as half life at 5 uM measured for 60 mins by LC-MS/MS analysis

[9] = Apparent permeability across apical to basolateral side in human Caco-2 cells measured after 120 mins by LC-MS/MS analysis
[10] = Apparent permeability across basolateral to apical side in human Caco-2 cells measured after 120 mins by LC-MS/MS analysis
[11] = Efflux ratio of apparent permeability across basolateral to apical side to apical to basolateral side in human Caco-2 cells measured after 120 mins by LC-MS/MS analysis
[12] = target: T1, Toll-like receptor 9

Row | SMILES | IC50 [3] [nM] | IC50 [4] [nM] | also measured
1 | CC(C)[N+](C)(CCOC(=O)C1c2ccccc2Oc2ccccc21)C(C)C [PROPANTHELINE] | – | – | remaining at 2 h, 1 µM [1]: 0%; remaining at 2 h, 1 µM [2]: 0%
2 | COc1ccc(-c2cn3ccc(N)cc3n2)c(OC)c1 | 1570 | – | –
3 | COc1ccc(-c2cn3ccc(N4CCN(C5CCCC5)CC4)cc3n2)c(O)c1 | 790 | 20800 | –
4 | COc1ccc(-c2nc3cc(N4CCN(C5CCCC5)CC4)ccn3c2NC2CCCCC2)c(OC)c1 | 2110 | 6700 | –
5 | COc1ccc(-c2cn3ccc(N4CCN(C5CCCC5)CC4)cc3n2)c(OC)c1 | 49 | 2340 | remaining at 2 h, 1 µM [1]: 64.9%; remaining at 2 h, 1 µM [2]: 93.4%; logD at 4.5 h [5]: 2.13; solubility kinetic at 24 h, 500 µM [6]: 10.2 µg/mL (≈ 25.1 µM); half-life at 1 h, 5 µM [7]: 37.6 min; half-life at 1 h, 5 µM [8]: 31.8 min
6 | COc1ccc(-c2cn3ccc(NCCCN4CCOCC4)cc3n2)c(OC)c1 | 69 | – | –
7 | COc1ccc(-c2cn3ccc(NCCCn4ccnc4)cc3n2)c(OC)c1 | 38 | 819 | –
8 | COc1ccc(-c2cn3ccc(N4CCN(C(=O)c5ccccc5)CC4)cc3n2)c(OCc2ccccc2)c1 | 1060 | 24900 | –
9 | COc1ccc(-c2nc3cc(N4CCN(C(=O)C5CCCC5)CC4)ccn3c2CN2CCCC2)c(OC)c1 | 1120 | 2550 | –
10 | COc1ccc(-c2cn3ccc(N4CCNCC4)cc3n2)c(OCCCN2CCOCC2)c1 | 35 | 1350 | –
11 | COc1ccc(-c2nc3cc(N4CCN(C5CCCC5)CC4)ccn3c2CN2CCCC2)c(O)c1 | 245 | 24900 | –
12 | COc1ccc(-c2nc3cc(N4CCN(C(C)C)CC4)ccn3c2CN2CCCC2)c(OC)c1 | 15 | – | –
13 | COc1ccc(-c2cn3ccc(N4CCNCC4)cc3n2)cc1 | 803 | 559 | –
14 | COc1ccc(-c2nc3cc(N4CCN(C5CCCC5)CC4)ccn3c2NCc2ccccc2)c(OC)c1 | 526 | 4810 | –
15 | COc1ccc(-c2cn3ccc(N4CCN(C(=O)C5CCCC5)CC4)cc3n2)c(O)c1 | 2120 | – | –
16 | COc1ccc(-c2cn3ccc(N4CCN(C5CCCC5)CC4)cc3n2)cc1 | 71 | 3330 | –
17 | COc1ccc(-c2cn3ccc(N4CCNCC4)cc3n2)c(OCCCN2CCCC2)c1 | 94 | – | –
18 | CN(C)c1ccn2cc(-c3ccccc3)nc2c1 | 2190 | – | –
19 | COc1ccc(-c2cn3ccc(N4CCN(C(=O)OC(C)(C)C)CC4)cc3n2)c(OCCCN2CCCC2)c1 | 157 | – | –
20 | COc1ccc(-c2cn3ccc(N)cc3n2)cc1 | 2920 | – | –
21 | COc1ccc(-c2cn3ccc(NCCCN4CCOCC4)cc3n2)cc1 | 67 | 1060 | –
22 | COc1ccc(-c2cn3ccc(N4CCNCC4)cc3n2)c(OCc2ccccc2)c1 | 55 | 1130 | –

Row | SMILES | IC50 [3] [nM] | IC50 [4] [nM] | also measured
23 | COc1ccc(-c2nc3cc(N4CCN(C5CCCC5)CC4)ccn3c2CN2CCOCC2)c(OC)c1 | 142 | 2120 | –
24 | COc1ccc(-c2cn3ccc(N4CCN(C5CCCC5)CC4)cc3n2)c(OCc2ccccc2)c1 | 153 | 5560 | –
25 | COc1ccc(-c2cn3ccc(N4CCN(C5CCCC5)CC4)cc3n2)c(OCCCN2CCOCC2)c1 | 28 | 478 | remaining at 2 h, 1 µM [1]: 94.3%; remaining at 2 h, 1 µM [2]: 90.6%; Papp A→B at 2 h [9]: 15.4 ×10⁻⁶ cm/s; Papp B→A at 2 h [10]: 8.17 ×10⁻⁶ cm/s; efflux ratio at 2 h [11]: 0.5; solubility kinetic at 24 h, 500 µM [6]: 2.6 µg/mL (≈ 5 µM)
26 | COc1ccc(-c2cn3ccc(N4CCN(C(C)C)CC4)cc3n2)cc1 | 44 | 1230 | remaining at 2 h, 1 µM [1]: 60.4%; remaining at 2 h, 1 µM [2]: 92.8%; logD at 4.5 h [5]: 1.64; solubility kinetic at 24 h, 500 µM [6]: 46.1 µg/mL (≈ 131 µM); half-life at 1 h, 5 µM [7]: 66 min; half-life at 1 h, 5 µM [8]: 29.4 min
27 | COc1ccc(-c2cn3ccc(N4CCN(C(=O)OC(C)(C)C)CC4)cc3n2)c(OCCCN2CCOCC2)c1 | 314 | 2950 | –
28 | CC(C)NCC(O)COc1cccc2ccccc12 (stereo not drawn) [PROPRANOLOL] | – | – | Papp A→B at 2 h [9]: 14.4 ×10⁻⁶ cm/s; Papp B→A at 2 h [10]: 17.3 ×10⁻⁶ cm/s; efflux ratio at 2 h [11]: 1.2
29 | COc1ccc(-c2cn3ccc(N(C)C)cc3n2)cc1 | 1480 | – | –
30 | COc1ccc(-c2cn3ccc(N4CCNCC4)cc3n2)c(OC)c1 | 46 | – | –
31 | COc1ccc(-c2nc3cc(N4CCN(C(C)C)CC4)ccn3c2CN2CCOCC2)c(OC)c1 | 40 | 2490 | –
32 | COc1ccc(-c2cn3ccc(N4CCN(C(=O)C5CCCC5)CC4)cc3n2)c(OC)c1 | 2910 | 8700 | –
33 | COc1ccc(-c2nc3cc(N4CCN(C5CCCC5)CC4)ccn3c2CN2CCCC2)c(OCc2ccccc2)c1 | 240 | – | –
34 | COc1ccc(-c2cn3ccc(NCCN4CCOCC4)cc3n2)c(OC)c1 | 49 | 3390 | –
35 | COc1ccc(-c2nc3ccccn3c2N)c(OC)c1 | – | > 30000 | –
36 | COc1ccc(-c2cn3ccccc3n2)c(OC)c1 | 10400 | – | –
37 | COc1ccc(-c2cn3ccc(N4CCN(C(=O)c5ccc(F)cc5)CC4)cc3n2)c(OCc2ccccc2)c1 | 2190 | 11000 | –
38 | COc1ccc(-c2cn3ccc(N(C)C)cc3n2)c(OC)c1 | 766 | 3780 | –
39 | COc1ccc(-c2cn3ccc(N4CCN(C(=O)C5CCCC5)CC4)cc3n2)c(OCc2ccccc2)c1 | 5130 | – | –
40 | COc1ccc(-c2cn3ccc(N4CCN(C5CCCC5)CC4)cc3n2)c(OCCCN2CCCC2)c1 | 17 | – | –
41 | CCCSc1ccc2nc(NC(=O)OC)[nH]c2c1 [ALBENDAZOLE] | – | – | solubility kinetic at 24 h, 500 µM [6]: 2.2 µg/mL (≈ 8.29 µM)
42 | COc1ccc(-c2cn3ccc(N4CCN(C(C)C)CC4)cc3n2)c(OC)c1 | 40 | – | IC50 [12]: 28 nM
43 | COc1ccc(-c2nc3cc(N4CCN(C5CCCC5)CC4)ccn3c2CN2CCCC2)c(OC)c1 | 39 | – | –
